The source of these data is PubChem BioAssay (NCI).

“And” between values parts separate entries of the source, which are not always exact repeats. Identical values can stand only once.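 Exposure lasted 48 hours, with cells grown in 96-well plates and compounds tested at five concentrations. GI50: concentration for 50% inhibition of growth. TGI is the concentration that stops growth completely.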 Some results are limits rather than exact numbers.

Holding throughout (experiment): NCI tumour cell line growth inhibition, 48 h
Assay [1] relates to COLO 205 colon.
For assay [2], the system named is U251 CNS.
Assay [3] concerns SN12C renal.
Assay [4] deals with SK-OV-3 ovarian.
In assay [5] the test system is DU-145 prostate.
The test system of assay [6] is MCF7 breast.
Assay [7] relates to NCI-H23 lung.
The test system of assay [8] is RPMI-8226 leukemia.
In assay [9] the test system is SK-MEL-28 melanoma.
Assay [10] concerns HL-60(TB) leukemia.

In the case of `N=C(N)SCC(=O)O`, the TGI in assay [1], in [2], in assay [3], in assay [4], in [5] and in [6] was greater than 100 µM each time. Also, the TGI in assay [7], in [8] and in assay [9] was greater than 100 µM each time.
For `O=C(O)C(O)c1ccc(F)cc1` (stereo not given), the TGI in [2], in assay [3], in assay [4], in assay [5], in assay [6] and in assay [7] was greater than 100 µM each time. Also, the TGI in assay [8] and in [9] was greater than 100 µM each time.
Turning to `CC[C@H](C)[C@H](NC(=O)N[C@@H](C)c1ccccc1)C(=O)N(C)[C@H](C[C@@H](OC(C)=O)c1nc(C(=O)N[C@@H](Cc2ccccc2)C[C@H](C)C(=O)OC)cs1)C(C)C`, the GI50 in assay [1] is 20.1 µM; in assay [2], 33.1 µM; in assay [3] it was 48.8 µM; in assay [4] it was 42.2 µM; in [5], 32.8 µM; in assay [6], 7.28 µM. Moreover, the GI50 was 28.2 µM in [7], 8.74 µM in assay [8] and 47 µM in [9]. The TGI in assay [1] is 57.1 µM; in assay [2], greater than 100 µM; in assay [3], greater than 100 µM; in assay [4], greater than 100 µM; in assay [5] it was greater than 100 µM; in assay [6], greater than 100 µM. The TGI in assay [7], in assay [8] and in assay [9] was greater than 100 µM each time.
`Cc1cc([C@H](C)Nc2nccc(N3C(=O)OC[C@@H]3[C@H](C)F)n2)ncc1-c1ccnc(C(F)(F)F)c1`: the GI50 in assay [1] is 21.9 µM; in assay [10], 35.7 µM; in assay [2] it was 39.5 µM; in assay [3], 44.5 µM; in assay [5] it was 75.6 µM; in assay [6] it was 26.7 µM. In addition, the GI50 in assay [7] is 17 µM; in assay [8], 16.7 µM; in assay [9], 48.8 µM. Besides, the TGI was 62.9 µM in [1]; greater than 100 µM in [10]; greater than 100 µM in assay [2]; greater than 100 µM in assay [3]; greater than 100 µM in assay [5]; greater than 100 µM in assay [6]. For the same compound, the TGI in assay [7], in [8] and in assay [9] was greater than 100 µM each time.
For `NCCNc1nc2ccccc2c2c(=O)c3cc(F)cc(Cl)c3sc12`, the GI50 in assay [1] was 1.69 µM; in assay [10], 1.88 µM; in assay [2] it was 1.22 µM; in [3], 1.65 µM; in [5], 1.73 µM; in [6] it was 1.52 µM. Further, the values for the GI50 in [7], in assay [8] and in assay [9] were 1.75 µM, 1.8 µM and 1.87 µM, respectively. In addition, the TGI came to 3.31 µM in assay [1]; 3.76 µM in assay [10]; 2.66 µM in assay [2]; 3.17 µM in assay [3]; 3.22 µM in assay [5]; 3.13 µM in [6]. Besides, the values for the TGI in [7], in assay [8] and in assay [9] were 3.42 µM, 3.82 µM and 3.4 µM, respectively.
Turning to `C=C1c2ccccc2N(S(=O)(=O)c2ccc(C)cc2)C12CCCCC2`, the TGI in assay [1], in assay [10], in assay [2], in [3], in [4] and in [7] was greater than 100 µM each time. Also, the TGI in assay [8] and in assay [9] was greater than 100 µM throughout.
As to `Cc1cc2c(-c3nc4ccccn4c3NC34CC5CC(CC(C5)C3)C4)c(O)c(O)cc2c(O)c1-c1c(C)cc2c(-c3nc4ccccn4c3NC34CC5CC(CC(C5)C3)C4)c(O)c(O)cc2c1O`, the GI50 in assay [1] was 0.626 µM; in [10] it was 0.789 µM; in [2] it was 0.106 µM; in [3], 0.716 µM; in assay [4] it was 0.749 µM; in assay [6], 0.175 µM. Besides, the GI50 in assay [7] was 0.137 µM; in assay [8] it was 0.355 µM; in [9], 0.459 µM. Moreover, the TGI in assay [1] is 4.77 µM; in assay [10] it was 11.5 µM; in assay [2], 3.3 µM; in assay [3], greater than 25 µM; in [4], 2.3 µM; in [6], 4.28 µM. The TGI in [7] was 3.09 µM; in assay [8] it was greater than 25 µM; in assay [9], 4.69 µM.
As to `O=c1c2ccccc2c(=O)c2c1sc1c(=O)c3ccc(O)cc3c(=O)c12`, the GI50 in assay [10] is 2.38 µM; in [2] it was 1.01 µM; in [3], 0.187 µM; in assay [4], 1.38 µM; in [5], 0.174 µM; in assay [7], 0.181 µM. Also, the GI50 in assay [8] was 1.42 µM; in assay [9] it was 0.247 µM. For the same compound, the TGI in assay [10] is 9.77 µM; in assay [2], 2.39 µM; in [3], 0.36 µM; in [4], 2.91 µM; in assay [5], 0.312 µM; in [7], 0.505 µM. Besides, the TGI came to 5.25 µM in [8] and 0.541 µM in assay [9].
Take `O=C1OC(c2ccc(Cl)c3ccccc23)c2ccccc21` (stereo not given): the TGI in [1], in assay [10], in assay [2], in assay [3], in assay [4] and in assay [7] was greater than 100 µM in each case. Besides, the TGI in assay [8] and in [9] was greater than 100 µM each time.
In the case of `O=C1[C@H]2ON(c3ccccc3)C(c3cccc([N+](=O)[O-])c3)[C@H]2C(=O)N1c1ccc(Cc2ccc(N3C(=O)[C@@H]4ON(c5ccccc5)C(c5cccc([N+](=O)[O-])c5)[C@@H]4C3=O)cc2)cc1` (stereo not given in full), the TGI in assay [1], in assay [10], in assay [2], in assay [3], in [4] and in assay [7] was greater than 100 µM each time. Also, the TGI in assay [8] and in assay [9] was greater than 100 µM in each case.
Regarding `C=C(C[N+](C)(C)C)N/N=C/c1oc(-c2ccc(OC)c(OC)c2)c(-c2ccc(OC)c(OC)c2)c1[N+](=O)[O-]`, the TGI in assay [1] was 33.6 µM; in assay [10], 33.9 µM; in assay [2], 40.2 µM; in [3] it was 32.6 µM; in [4] it was 64.4 µM; in assay [5] it was greater than 100 µM. In addition, the TGI in assay [7] stood at 44.7 µM; in assay [8] it was 41.4 µM; in assay [9] it was 33.8 µM.
With `C=CCN(N=O)C(=O)ON1C(=O)CCC1=O`, the TGI in assay [1], in [10], in assay [2], in assay [3], in [4] and in assay [7] was greater than 100 µM in each case. The TGI in [8] and in [9] was greater than 100 µM each time.
Consider `CN1C=C(C(N)=O)C2CC(O)[C@@](NC(=O)CS(N)(=O)=O)(C(=O)O)C2C1` (stereo not given in full), for which the TGI in assay [1] was 29.2 µM; in assay [10], greater than 100 µM; in assay [2], 11 µM; in assay [3], greater than 75.1 µM; in [4], 6.75 µM; in [7] it was 3.48 µM. The TGI in assay [8] came to 58.9 µM; in assay [9], 7.32 µM.
For the compound `O=c1ncccn1C1OC(CO)C(O)C1F` (stereo not given), the TGI in [1], in assay [10], in assay [2], in assay [3], in assay [4] and in [7] was greater than 100 µM each time. Also, the TGI in assay [8] and in [9] was greater than 100 µM each time.
Take `BrC(Br)([P+](c1ccccc1)(c1ccccc1)c1ccccc1)[P+](c1ccccc1)(c1ccccc1)c1ccccc1`: the TGI in [1] is 29.9 µM; in [10], 54.3 µM; in assay [2] it was 47.3 µM; in [3], 61.3 µM; in assay [4] it was greater than 100 µM; in assay [7] it was 34 µM. Also, the TGI came out at 34.4 µM in assay [8] and 50 µM in assay [9].
Regarding `CCCC(=O)Nc1cn(COC)c(C(=O)N2C[C@H]3C[C@@]34C2=CC(=O)c2[nH]cc(C)c24)n1`, the GI50 in [1] is 4.41 µM; in assay [3] it was 5.55 µM; in assay [4], 26.7 µM; in [5], 2.56 µM; in [6] it was 3.53 µM; in [7], 2.59 µM. The GI50 in assay [8] is 3.21 µM; in [9] it was 17.3 µM. Also, the TGI in assay [1] is 15.9 µM and 32.4 µM; in assay [2] it was 50 µM and > 100 µM; in assay [3], 42.9 µM and 71.2 µM; in assay [4] it was 50 µM and > 100 µM; in assay [5] it was 5 µM and 11.4 µM; in assay [6] it was 50 µM and > 100 µM. The TGI in [7] is 11.8 µM and 16.7 µM; in assay [8], 22.8 µM and > 100 µM; in assay [9] it was 35.7 µM and > 100 µM.
In the case of `O=C1Cc2ccccc2CCc2ccccc21`, the TGI in [1], in assay [10], in [2], in assay [3], in assay [4] and in assay [7] was greater than 100 µM in each case. For the same compound, the TGI in assay [8] and in assay [9] was greater than 100 µM in each case.
For the compound `COC(=O)C1=C(C(=O)OC)N(C(C)C)[C@H]2C(C(=O)OC)=C(C(=O)OC)N(C(C)C)[C@@H]12`, the TGI in [1], in assay [10], in assay [2], in assay [3], in [4] and in assay [7] was greater than 100 µM each time. The TGI in assay [8] and in assay [9] was greater than 100 µM in each case.
With `CCOc1ccccc1NC(=O)CCC(=O)NN`, the TGI in assay [1], in assay [10], in [2], in [3], in assay [4] and in assay [7] was greater than 100 µM each time. The TGI in assay [8] and in assay [9] was greater than 100 µM throughout.
As for `OCCN(CCO)c1ncnc2c1sc(=S)n2-c1ccccc1`, the TGI in [1], in assay [10], in [2], in [3], in assay [4] and in [7] was greater than 100 µM each time. In addition, the TGI in assay [8] and in [9] was greater than 100 µM each time.
As to `CCC1(Cl)C(=O)NC(=O)N(C2CC(O)C(CO)O2)C1N=[N+]=[N-]` (stereo not given), the TGI in [1], in assay [10], in assay [2], in assay [3], in assay [4] and in [7] was greater than 100 µM throughout. The TGI in [8] and in assay [9] was greater than 100 µM in each case.
Regarding `C#CCn1cc(C=C2C(=O)NC(=S)NC2=O)c2cc(Cl)ccc21`, the GI50 in assay [1] was 2.22 µM; in [10], 2.24 µM; in assay [2], 1.87 µM; in assay [3], 2.05 µM; in assay [4], 2.87 µM; in assay [5], 1.72 µM. The GI50 in assay [6] was 1.67 µM; in [7], 2.18 µM; in assay [9], 2.33 µM. Moreover, the TGI in assay [1] was 5.28 µM; in [10], 6.45 µM; in assay [2], 3.9 µM; in assay [3] it was 4.49 µM; in assay [4], 14.7 µM; in assay [5] it was 3.22 µM. Further, the TGI in [6] came out at 3.46 µM; in assay [7], 5.26 µM; in [9] it was 5.56 µM.
`COc1cc(-c2nn3c(=O)n(-c4ccc(Cl)cc4)c(=O)nc3s2)cc(OC)c1OC`: the GI50 in [1] is greater than 50 µM; in assay [10] it was greater than 100 µM; in assay [3], greater than 50 µM; in assay [4], 33.5 µM; in assay [7], greater than 50 µM; in assay [8], greater than 100 µM. Also, in [9], the GI50 is greater than 50 µM. Also, the TGI was greater than 100 µM in [1]; greater than 100 µM in assay [10]; greater than 69 µM in assay [2]; greater than 100 µM in [3]; greater than 100 µM in [4]; greater than 100 µM in assay [7]. In addition, the TGI in assay [8] and in assay [9] was greater than 100 µM throughout.
